Patent publication US20120190707A1, “SELECTIVE INHIBITORS OF AKT AND METHODS OF USING SAME” (priority 2008, published 2012)
“Also recorded” adds a separate entry of the source.

How the values were obtained:
[1] = tested on: JNK; assay: Activity of other protein kinases: JNK; assay type: biochemical; details: 100 micro.M
Excerpt: We recently reported on the direct evaluation of a number of in silico approaches to identify AKT inhibitors (Forino et al., 2005) We achieved experimental validation of selected compounds using both a fluorescence-based enzymatic assay and a substrate phosphorylation assay involving the protein GSK-3 (Forino et al., 2005). Briefly, the virtual docking approach consists of selecting the top 4,000 out of 50,000 docked compounds, using a variety of computational docking approaches, including a consensus score among two different scoring functions (Forino et al., 2005). Of those, 100 compounds were selected based on ranking and favorable docking geometry.

[2] = tested on: AKT; assay: AKT expression by western blot in MCF7 breast cancer cells; assay type: cell-based; details: MCF7, 5 and 10 micro.M
Description: (§1) (A) MeWo melanoma cells growing in 60 mm plates were treated with the indicated concentration of the inhibitor for 4 h before proteins were prepared for western blot analysis using the indicated antibodies. Level of beta.actin was monitored as a control for protein loading. (B) Experiment was performed as indicated in panel A, except that cells were harvested after 24 h for analysis of cell death using trypan blue staining. (C) Melanoma (MeWo), prostate cancer (PC3) and breast cancer (MCF7) cells were treated with BI-69A11 at the indicated concentrations; levels of AKT phosphorylation or expression were assessed 4 h later. The level of beta.actin used as a control for protein loading. (D) Experiment was performed as indicated in panel C, except that cells were harvested after 4 h for analysis of cell death using trypan blue staining.
For western blotting techniques, cells were lysed in RIPA buffer containing 50 mM TrisHCl pH7.4, 150 mM NaCl, 2 mM EDTA, 1% NP-40, 0.1% SDS. The protein concentration was estimated using the Coomassie Protein assay kit (Thermo Scientific, Rockford, Ill., USA). Equal concentrations of cell lysate (30-50 ug) were resolved on a 10% polyacrylamide gel and transferred onto Nitrocellulose membrane (GE Amersham). Membranes were blocked for 1-2 hours in either 3% BSA or 5% nonfat dried milk in Tris-buffered saline containing 0.05% Tween 20. […]

[3] = tested on: MCF7 cells; assay: Cell death by trypan blue staining, MCF7; assay type: cell-based; details: 5 micro.M, 4 hours
Description: as §1
For the proliferation assays, cells were treated as described above. However, instead of scraping cells into the serum-free medium, floating cells were collected in a 15 mL centrifuge tube whereas adherent cells trypsinized gently. The total cell population was pooled and counted on a hemocytometer after staining with Trypan Blue.

[4] = tested on: melanocytes; assay: AKT phosphorylation and toxicity in cultured melanocytes; assay type: cell-based; details: data not shown
[5] = tested on: AKT; assay: pAKT473 and total AKT by western analysis in 29-1 (PTEN+) cells; assay type: cell-based, human; details: 29-1 cells
Description: (§2) FIG. 6 describes the effect of BI-69A11 on phosphorylation and total levels of AKT in UACC 903 (PTEN−) cells. (A) UACC903 and the modified clone 29-1 (PTEN+) cells were exposed to 10 micro.M BI-69A11 and 50 micro.M LY294002 (a PI3K inhibitor) and the levels of pAKT473 and total AKT determined by western analysis. […] (SF=Serum Free). (B) BI-69A11 inhibits PRAS40 phosphorylation. UACC903 melanoma cells or 29-1 cells (PTEN+) were subjected to treatment with IGF-1 (20 ng/mL) and the level of PRAS40 phosphorylation was assessed. […] The cells were collected, lysed and levels of pPRAS40 and total PRAS40 determined by western analysis. (C) AKT association with HSP90 is inhibited by BI-69A11. Human melanoma cells were treated with BI-69A11 (10.micro.M) or DMSO control for 4 h, followed by protein preparation and immunoprecipitation using antibodies to pan-AKT. MG132 treatment, when used, initiated 1 h prior to treatment and lasted up to the preparation of proteins (total of 5 h). The right panel depicts analysis of total lysates.
The term “cell lines”, as used herein, unless otherwise indicated, refer to UACC 903 cells and 29-1 cells. The cells were cultured in DMEM, supplemented with 10% FBS and maintained at 37° C. in 5% CO2. Cells were plated to 75% confluency and grown overnight at 37° C. […]

[6] = tested on: PRAS40; assay: IGF-1 induced PRAS40 phosphorylation by western analysis in 29-1 cells; assay type: cell-based, human; details: IGF-1 (20 ng/mL), 10.micro.M
Description: as §2
We next tested the effect of BI-69A11 in 29-1 cells which are derivative of UAC903 that were reconstituted with chromosome 10 carrying the wt PTEN. Thus, 29-1 cells no longer express a constitutively active form of AKT (Robertson et al., 1998). To activate AKT, 29-1 cells were treated with IGF-1 (FIG. 6B). […]

[7] = tested on: PARP; assay: PARP cleavage in 903 and 29-1 cells; assay type: cell-based, human; details: 2, 4 and 6 hours; listed as BI-69A11
Description: (A) 903 and 29-1 cells were exposed to different concentrations of BI-69A11 or UV light as a positive control and the percentage of cell death determined by trypan blue exclusion assay. (B) PARP cleavage was determined in 903 and 29-1 cells after treatment with BI-69A11 at 2, 4 and 6 hours.
Since AKT activity is important for tumor cell survival, its inhibition is expected to result in cell death. We thus monitored cell death in melanoma cells that were treated with BI-69A11.
(§3) For western blotting techniques, cells were lysed in RIPA buffer containing 50 mM TrisHCl pH7.4, 150 mM NaCl, 2 mM EDTA, 1% NP-40, 0.1% SDS. The protein concentration was estimated using the Coomassie Protein assay kit (Thermo Scientific, Rockford, Ill., USA). Equal concentrations of cell lysate (30-50 ug) were resolved on a 10% polyacrylamide gel and transferred onto Nitrocellulose membrane (GE Amersham). Membranes were blocked for 1-2 hours in either 3% BSA or 5% nonfat dried milk in Tris-buffered saline containing 0.05% Tween 20. Primary antibody incubations were performed overnight at 4° C. with shaking. The blots were washed followed by incubation with a secondary antibody incubation for 1 hour at room temperature. After washing, the blots were scanned on the Odyssey Licor scanner at the appropriate wavelength and the image was captured using the Odyssey software.

[8] = tested on: ATM-CHK2 axis; assay: ATM and CHK2 phosphorylation (DNA damage response) western analysis in UACC903 cells; assay type: cell-based, human
Description: UACC903 melanoma cells were exposed to vehicle control or 10 μM BI-69A11 for 1 h prior to γ-irradiation (10 Gray). Cells were harvested at the indicated time points post-irradiation and whole cell lysates were subjected to western analysis for phosphorylated ATM, total ATM, phosphorylated Chk2, and PLCγ (as loading control).
FIG. 14 is an assessment of BI-69A11 analogs on Chk2 phosphorylation. UACC903 melanoma cells were exposed to vehicle control, 10 μM BI-69A11, or 10 μM analog for 2 h. Cells were harvested and whole cell lysates were subjected to western analysis for phosphorylated Chk2 and PLCγ (as loading control).
To accomplish this, we g-irradiated vehicle- or BI69A11-treated cells and examined ATM and CHK2 phosphorylation, a well-characterized surrogate of activation (FIG. 13). In vehicle-treated cells, g-irradiation led to the robust phosphorylation of ATM and CHK2.
We next examined the panel of BI-69A11 analogs for their ability to stimulate CHK2 phosphorylation in UACC903 cells (FIG. 14).
as §3

With `O=C(/C=C/c1nc2ccccc2[nH]1)c1c(O)nc2ccc(Cl)cc2c1-c1ccccc1` [Compound 2, (E)-3-(3-(1H-benzo[d]imidazol-2-yl)acryloyl)-6-chloro-4-phenylquinolin-2(1H)-one] the “effect on JNK activity” value [1] was “did not affect”, the AKT protein levels [2] was “not affected” and the “viability of MCF7 cells” value [3] was “did not affect”. The “AKT phosphorylation in growth factor-maintained melanocytes” value ([4]; coincided with cell death) was “efficient inhibition of AKT phosphorylation”, the “toxic effect on melanocytes deprived of growth factors” value ([4]; deprived for 24 h) was “no longer elicit toxic effect” and the AKT phosphorylation [5] was “limited to no effect”. For the same compound, the “levels of total AKT” value ([5]; 10 micro.M, increasing time after treatment) was “reduced levels of total AKT”, the “phosphorylation of PRAS40” value [6] was “effectively inhibited” and the “PARP cleavage, 903 cells compared with 29-1” value [7] was “more pronounced in the UAC903 cells; also recorded: Increased PARP cleavage”. For the same compound, the “ATM and CHK2 phosphorylation in the absence of radiation” value ([8]; 10 μM) was “leads to ATM and CHK2 phosphorylation”, the “ATM or CHK2 phosphorylation following g-irradiation” value ([8]; 10 μM for 1 h prior to γ-irradiation (10 Gray)) was “did not inhibit” and the “CHK2 phosphorylation / activation” value ([8]; 10 μM for 2 h) was “induced the activation of CHK2 to a similar extent”.
